“And” between values parts separate entries of the source, which are not always exact repeats. Equal values may be shown once. The source made the active and inactive calls. The calls are words filed in the database; no cut-off is given here.
What was measured:
[1] = Inhibition of pig kidney cytosolic leucine aminopeptidase; design: species or system Sus scrofa
[2] = Inhibition of pig kidney microsomal leucine aminopeptidase; design: species or system Sus scrofa
Sus scrofa = species on record: Sus scrofa; test: Inhibition of pig kidney microsomal leucine aminopeptidase at 10 to 20 uM

| Ki [1] | Ki [2] | Activity (Sus scrofa) | SMILES |
| --- | --- | --- | --- |
| 12.4 µM | 1500 µM |  | NC(CCc1ccccc1)P(=O)(O)CC(NCc1ccccc1)C(=O)O (stereo in doubt; 6) |
| 4.46 µM | 0.56 µM |  | NCc1ccc(NC(CP(=O)(O)C(N)CCc2ccccc2)C(=O)O)cc1 (stereo unspecified) |
| 4.21 µM and 1.42 µM |  | inactive | NC(CCc1ccccc1)P(=O)(O)CC(NCc1ccc(CO)cc1)C(=O)O (stereo unspecified) |
| 10.1 µM |  |  | NC(CCc1ccccc1)P(=O)(O)CC(NCc1ccccc1)C(=O)O (stereo in doubt; 6,F1) [listing 1 of 2 here] |
| 2.62 µM | 2.66 µM |  | NCc1ccc(CNC(CP(=O)(O)C(N)CCc2ccccc2)C(=O)O)cc1 (stereo in doubt; 8,F2) |
|  |  | inactive | NC(CCc1ccccc1)P(=O)(O)CC(NCc1ccccc1)C(=O)O (stereo in doubt; 6,F1) [listing 2 of 2 here] |
| 0.57 µM and 0.45 µM |  | inactive | NC(CCc1ccccc1)P(=O)(O)CC(Nc1ccccc1)C(=O)O (stereo unspecified) |
| 2.78 µM | 19.9 µM |  | NCc1ccc(CNC(CP(=O)(O)C(N)CCc2ccccc2)C(=O)O)cc1 (stereo in doubt; 8,F1) |
| 10.3 µM and 6.98 µM | 0.9 µM and 1.13 µM |  | NC(CCc1ccccc1)P(=O)(O)CC(Nc1ccc(CO)cc1)C(=O)O (stereo unspecified) |
